Experimental data published in US7868135B2, “Compositions of lipopeptide antibiotic derivatives and methods of use thereof” (priority 2003, dated 2011).

What was measured:
[1] = tested on: Streptococcus pneumoniae (SPN032, ATCC 1081); experiment: Intranasal murine lung infection model; type: in vivo; conditions: Swiss CD1 mice, i.n. S. pneumoniae, i.v. treatment at 3, 24 and 48 hours post-infection, deaths over ten days
Description: Other exemplary in vivo models of infection that may be used to assess, for example, the efficacy of an antimicrobial lipopeptide of the instant disclosure include the following: (A) a mouse (murine) model of lung infection (pneumonia) wherein the bacterial infection is administered intranasally (i.n.); (B) a murine thigh muscle model wherein the bacterial infection is administered intramuscularly (i.m.) in normal or neutropenic (immunocompromised) mice; and (C) a combination murine thigh muscle model (i.m. infection)/lung (i.n.) infection.
Antimicrobial lipopeptide derivatives of the instant invention were tested for antimicrobial activity against Gram-positive bacteria in an intranasal (i.n.) murine lung infection model (i.e., bacteria were innoculated i.n. and lipopeptide compounds were administered i.v.). Streptococcus pneumoniae (SPN032, ATCC 1081) were grown on 5% sheep blood agar plates for 24 h at 37° C., harvested and then resuspended in 0.9% saline. A group of eight Swiss CD1 mice were sedated with 2% isoflurane, and each was infected i.n. dropwise to the nares with 50 μl of the prepared bacterial inoculum (i.e., a dose of about 10^6 CFU/mouse). […] The ED50 (mg/kg) for each compound was calculated using the method of Reed and Meunch (Am. J. Hyg. 27: 493, 1938).

[2] = tested on: Streptococcus pneumoniae (SPN0002); experiment: Lung infection model in neutropenic mice; type: in vivo
Description: Antimicrobial lipopeptide derivatives of the instant invention were tested for antimicrobial activity against Gram-positive bacteria in an intranasal (i.n.), immunocomprimised murine lung infection model (i.e., bacteria were innoculated i.n. and lipopeptide compounds were administered i.v.). Streptococcus pneumoniae (SPN0002) were grown on 5% sheep blood agar plates for 24 h at 37° C., harvested and then resuspended in 0.9% saline. A group of three to four Swiss CD1 mice were rendered neutropenic by administration of cyclophosphamide (Sigma Chemical Co.; 150 mg/kg, i.p.) on day −4 and −1 before infection. At time −18 to −24 hours, each mouse was infected i.n. dropwise via the nares with 50 μl of the prepared bacterial inoculum (i.e., a dose of about 5×10^6 CFU/mouse). At 18 to 24 hours post-infection, the groups of mice received i.v. (1) a lipopeptide derivative formulated in a 5% D-mannitol solution at a dose of about 1 mg/kg, 3 mg/kg, 10 mg/kg, or 30 mg/kg; (2) the 5% mannitol vehicle alone at a dose volume of 10 mL/kg; or (3) a known antibiotic, such as ampicillin, at a similar dose as the lipopeptide compounds. At 18 to 24 hours post-antibiotic treatment, mice were sacrificed and lungs harvested. Lungs were sampled by spreading homogenates on blood agar plates and incubating for 24 h at 37° C., and then counting the number of CFU. The EKill (killing effect; i.e., log10 CFU/lung reduction as compared to CFU count at intial treatment time) and the EMax (maximum reduction effect; i.e., log10 CFU/lung reduction as compared to CFU count of control at 24 hours) for each compound was calculated.

[3] = tested on: S. pneumoniae (SPN 0032, ATCC 10813); experiment: Intraperitoneal murine model of protection against infection (ED50, Table 21); type: in vivo, Streptococcus pneumoniae; conditions: Swiss CD1 mice infected i.p., compound i.v.

| SMILES | ED50 [1] | EKill (log10 CFU/lung reduction versus count at initial treatment time) ([2]; 30 mg/kg i.v.) | log10 CFU/lung reduction (EMax, versus control at 24 hours) ([2]; highest dose level 30 mg/kg i.v.) | ED50 in Mice, S. pneumoniae (SPN0032) [3] |
| --- | --- | --- | --- | --- |
| CCCCCCCCCCCCCCC(=O)NC(CC(=O)O)C(=O)NC1C(=O)N2CCCCC2C(=O)NC(C(C)C(=O)O)C(=O)NC(CC(=O)O)C(=O)NCC(=O)NC(CC(=O)O)C(=O)NCC(=O)NC(C(C)NC(=O)CNC(=O)[C@@H](N)CCCCN)C(=O)NC(C(C)C)C(=O)N2CCCC2C(=O)NC1C (stereo partly shown) [Compound 4, C15-Amphomycin-9-Gly-Lys] | 1.3 mg/kg |  |  |  |
| CCCCCCCCCCCCCCC(=O)NC(CC(=O)O)C(=O)NC1C(=O)N2CCCCC2C(=O)NC(C(C)C(=O)O)C(=O)NC(CC(=O)O)C(=O)NCC(=O)NC(CC(=O)O)C(=O)NCC(=O)NC(C(C)NC(=O)CCN)C(=O)NC(C(C)C)C(=O)N2CCCC2C(=O)NC1C (stereo not drawn) [Compound 147, C15-Amphomycin-9-(β-Ala)] |  | 3.2 log10 CFU/lung | 4.0 log10 CFU/lung | 0.65 mg/kg |
